Tested on: 20S core particle (20S CP) of the proteasome
Assay: FRET peptide reporter hydrolysis, single concentration
Assay type: biochemical, Homo sapiens
Details: stimulator (activation); site unknown

% stimulation over control at 25 μM: 215%
Structure (SMILES): C[C@H]1[C@H](C)CC[C@]2(C(=O)O)CC[C@]3(C)C(=CC[C@@H]4[C@@]5(C)CC[C@H](O)C(C)(C)[C@@H]5CC[C@]43C)[C@H]12 [UA, ursolic acid]

Source: article PMC8341874 (RSC Chemical Biology, 2021)
